Data on two molecules can be found in publication PMC4801149 (Drug Design, Development and Therapy, 2016).

pIC50: −log10 of the molar value. Read-outs that look alike come from different tables or passages of the source.

The target in one series is other CDKs. In words: Kinase assay in vitro, other CDKs overall. The series is classed as biochemical. The conditions noted are these: read-out: IC50 values for inhibition of other CDKs; CDKs other than CDK7.
For series [1], the system named is BGC823 cells. In words: Transwell cell migration assay. The conditions noted are these: 24 hours, dose-dependent, P<0.05. The series is classed as cell-based, Human.
The conditions of series [2]: cited from earlier work.
The test system of series [3] is BGC823 cells. The experiment in a line: Matrigel-coated transwell invasion assay. The series is classed as cell-based, Human. The note with it: 24 hours, matrigel-coated transwells, dose-dependent, P<0.05.
For series [4], the system named is BGC823 cells. The experiment in a line: Western blot of apoptosis and cell cycle proteins. The series is classed as cell-based, Human. The conditions noted are these: P<0.05. On the technique in general: Immunoblotting shows a protein as a band on a membrane.
For series [5], the system named is RNA polymerase II CTD serine 5 (P-Ser5), CDK7 phosphorylation site. In words: Immunoblotting of RNA polymerase II CTD Ser5 phosphorylation. The series is classed as cell-based, Human. The conditions noted are these: BGC823 whole cell lysates, 4 hours.
The subject of series [6] is BGC823 cells. In words: Cell cycle distribution by flow cytometry. The series is classed as cell-based, Human. For orientation: In flow cytometry, cells or beads pass a laser one at a time.
In series [7] the test system is BGC823 cells. The experiment in a line: Apoptosis by flow cytometry. It is filed as cell-based, Human. The conditions noted are these: compared to control, dose- and time-dependent, P<0.05.

On to `CC[C@H](CO)Nc1nc(NCc2ccccc2)c2ncn(C(C)C)c2n1` [Roscovitine, roscovitine], for which, in the series with BGC823 xenograft (roscovitine 20 mg/kg/d for 14 days, five of ten), the “mice died in additional 30-day survival observation” value (from here on “mice died”) was determined as 50%.

Turning to `CC(C)c1cnn2c(NCc3ccccc3)cc(NCCCCCCN)nc12` [BS-181], the pIC50 (usually the IC50 on a negative log10 scale, so that one unit is a factor of ten) on other CDKs was below 6.00. For the same molecule, the cell migration ability entry with BGC823 cells [1] is “significantly inhibited”. The “mice body weights, difference between groups” value in the series with BGC823 xenograft (14-day observation, 10 or 20 mg/kg/d ip) is recorded as “no significant difference”. In addition, the “mice died” value in the series on BGC823 xenograft (BS-181 10 mg/kg/d ip for 14 days, six of ten) worked out at 60%. In addition, the “mice died” value in the series with BGC823 xenograft (BS-181 20 mg/kg/d ip for 14 days, three of ten) is 30%. Further, the toxicity entry with BGC823 xenograft (daily dose of 10 mg/kg or 20 mg/kg ip, 14 days) was “no apparent toxicity”. Also, the tumor growth entry with BGC823 xenograft (ip twice daily, 10 or 20 mg/kg/d, 14 days, dose-dependent, compared to control, P<0.05) is on record as “significantly inhibited”. Besides, in series [2] (dose of 10 mg/kg/d or 20 mg/kg/d, BALB/c-nu mice), the tolerability result was “well-tolerated”. In addition, the “maximum tolerated single dose” value in [2] (given intraperitoneally) is 30 mg/kg/day. Also, in the series on BGC823 cells [3], the cell invasion ability entry was “significantly inhibited”. In the series on BGC823 cells [4], the XIAP expression entry is reported as “significant reduction” and the “cyclin D1 expression” value is listed as “significant reduction”. Besides, in the series on BGC823 cells [4] (compared to control), the Bax expression entry is listed as “significantly increased”, the Bcl-2 level entry is “reduced” and the caspase-3 expression entry is reported as “significantly increased”. Also, the “phosphorylation of the RNA polymerase II CTD at serine 5 (P-Ser5)” value in [5] is “inhibited”. For the same molecule, in the series on BGC823 cells [6], the “cell population in S and G2/M phases” value is reported as “reduction”; the “cells in G0/G1” value is “increase”. Also, the apoptotic cells entry in the series with BGC823 cells [7] was “Significant increases”.
